Two molecules from publication PMC10992376, “High coenzyme affinity chimeric amine dehydrogenase based on domain engineering” (Bioresources and Bioprocessing, 2022) can be followed below.

The subject of this test is T1, cFLF-AmDH.
T1 construct: gene pdh; KS/NL parents; C-terminal His6; E. coli BL21(DE3)
Description: NADH oxidation at […] nm, Michaelis-Menten fit. Type of test: biochemical, Pseudobacillus badius. As to conditions: 2 M NH4Cl/NH4OH, optimum pH and temperature (table note; Methods: 100 mM NH4Cl/NH4OH, pH 8.5, 30 °C).

SMILES strings stand for the structures. Where two headings read alike, the source gives them in different places.

Consider `NC(=O)C1=CN([C@@H]2O[C@H](COP(=O)(O)OP(=O)(O)OC[C@H]3O[C@@H](n4cnc5c(N)ncnc54)[C@H](O)[C@@H]3O)[C@@H](O)[C@H]2O)C=CC1` [NADH], for which the Km (read-out: NADH / Km, co-substrate pFPA) amounted to 0.49 ± 0.02 mM.
Turning to `CC(=O)Cc1ccc(F)cc1` [p-FPA], where the note is “co-substrate NADH, ammonium, read-out: pFPA / Km”, the Km is 21.8 ± 2.67 mM.
